Patent publication US4143134A, “Halo-phosphonopeptides” (Hoffmann-La Roche Inc., priority 1976, dated 1979)
In brackets after ≈: the same amount, converted by molar mass.

Columns and labels:
Type in all cases: cell-based
[1] = system: Klebsiella aerogenes Type 33 Ba; assay: in vitro M.I.C. test against Klebsiella aerogenes Type 33 Ba; details: TYPE33BA, read-out: M.I.C. (minimum inhibitory concentration)
Text: (§1) The following Table illustrates the minimum inhibitory concentration (M.I.C.) in μg/ml of a representative peptide derivative provided by this invention, namely (1R)-1-(L-3-fluoroalanylamino)-ethylphosphonic acid, in an in vitro test against various organisms.

[2] = system: Escherichia coli NCIB 8879 P.S.; assay: in vitro M.I.C. test against Escherichia coli NCIB 8879 P.S.; details: NCIB8879, read-out: M.I.C. (minimum inhibitory concentration)
Text: as §1

[3] = system: Escherichia coli NCTC 10418 P.S.; assay: in vitro M.I.C. test against Escherichia coli NCTC 10418 P.S.; details: NCTC10418, read-out: M.I.C. (minimum inhibitory concentration)
Text: as §1

[4] = system: Haemophilus influenzae NCTC 4560; assay: in vitro M.I.C. test against Haemophilus influenzae NCTC 4560; details: NCTC4560, read-out: M.I.C. (minimum inhibitory concentration)
Text: as §1

[5] = system: Escherichia coli C.1.5 P.R.; assay: in vitro M.I.C. test against Escherichia coli C.1.5 P.R.; details: read-out: M.I.C. (minimum inhibitory concentration)
Text: as §1

[6] = system: Klebsiella aerogenes O-G KAl; assay: in vitro M.I.C. test against Klebsiella aerogenes O-G KAl; details: read-out: M.I.C. (minimum inhibitory concentration)
Text: as §1

C[C@H](NC(=O)[C@@H](N)CF)P(=O)(O)O [(1R)-1-(L-3-fluoroalanylamino)-ethylphosphonic acid]
MIC [1]: 1 µg/mL (≈ 4.67 µM)
MIC [2]: 0.5 µg/mL (≈ 2.33 µM)
MIC [3]: 0.25 µg/mL (≈ 1.17 µM)
MIC [4]: 8 µg/mL (≈ 37.4 µM)
MIC [5]: 4 µg/mL (≈ 18.7 µM)
MIC [6]: 4 µg/mL (≈ 18.7 µM)
